The subject of one assay is blister wounds. Conditions: mEGF in saline solution once daily until healed; human subjects; cited from earlier work.
A further assay deals with open wounds. To be noted: topical application; mice; cited from earlier work.
The subject of assay [1] is interscapular incision. The experiment in a line: Tensile strength of incisions treated with a single dose of EGF-saline. It counts as in vivo, rats. To be noted: after 10 days; single dose in saline. On the procedure:
Adult male Sprague Dawley rats weighing 230-250 g were anesthetized and a single interscapular incision 5 cm long penetrating the panniculus carnosus was created in the dorsal midline. Equal amounts of hEGF (10 μg) formulated in one of the four formulations were placed in the base of individual incision tracts, and then sutured. At daily intervals, rats were sacrificed by carbon dioxide inhalation and incisions with 3 mm of surrounding nonwounded skin were excised to the underlying muscle. Total amounts of hEGF present in incision areas were calculated by measuring residual ^125 I-hEGF present in samples using a Beckman 4000 gamma scintillation counter, and were expressed as percentages of original hEGF applied to incisions. At each time point, the average amount of hEGF retained in the incision for each formulation was calculated from the values from three rats. From each incision, three test strips approximately 5 mm wide were cut perpendicular to the original incision, one from the middle and two from each end. Measurements of incision strength were conducted using a Unite-O-Matic FM-20 tensiometer instrument. For each formulation, the mean tensile strength was calculated from the mean value of all incision measurements in the group. […]

Assay [2] relates to interscapular incision. The experiment in a line: Tensile strength of incisions treated with repeated doses of EGF-saline. Format: in vivo, rats. On the procedure: Interscapular incisions were created as above on the backs of 22 rats and a perforated catheter was placed in the base of the incision and brought out through a separate stab incision at the base of the neck. Incisions of half the rats were treated three times a day for five days by rapidly injecting 200 μl of PBS containing 50 μg of hEGF, while the control rats received injections of PBS. Seven and 14 days after surgery, rats were sacrificed by carbon dioxide asphixiation, incisions and surrounding tissue were removed as above. Three strips were taken from tensile strength measurement from each incision.
An interscapular incision was made on the back of each rat and a perforated catheter was placed in the base of the incision and brought out through a separate stab wound and the incision was sutured. Incisions were treated three times a day for five days by injecting 200 μl of saline alone or containing 50 μg EGF. After seven and fourteen days, rats were sacrificed and triplicate tensile strength measurements were determined for each rat. Values are mean and standard deviation and n is the number of tensile strength measurements.

Assay [3] deals with capillary growth in rabbit cornea. The assay is described as follows: Rabbit cornea angiogenesis assay with hEGF EVA pellets. Format: in vivo, rabbits. Details: key to Angiogenic Response: 4+: profuse capillary growth; 3+: extensive capillary growth; 2+: moderate capillary growth; 1+: very little capillary growth; 0: no capillary growth. As to the method: hEGF was dilated in sterile PBS to concentrations of 500, 100, 20, 4 and 0.8 μg/ml and lyophilized. Ethylene-vinyl acetate (EVA) copolymer beads were mixed with methylene chloride to produce a 10% w/v casting solution. Approximately 0.1 ml of casting solution was added to the lyophilized hEGF and mixed. […]
The pellets were implanted into intrasomal corneal pockets located 1.5 mm from the limbus in the eyes of pigmented adult rabbits. […]

As for “mEGF: epidermal growth factor obtained from mouse salivary glands (NSYPGCPSSYDGYCLNGGVCMHIESLDSYTCNCVIGYSGDRCQTRDLRWWELR; not fully specified; Epidermal growth factor; UniProt P01132 977-1029, looked up)”, in the assay on blister wounds, the “acceleration in the growth of the epidermal layer” value was “No acceleration”. Besides, in the assay on open wounds, the “healing of open wounds” value was “promote healing in various degrees”.
For “hEGF: human epidermal growth factor polypeptide expressed from plasmid pYαEGF-23 in yeast strain AB103 and purified”, the “tensile strength vs PBS-treated or simply sutured incisions” value in the assay on interscapular incision [1] is on record as “not significantly stronger”. Moreover, the “average increase in strength over saline treated incisions” value in the assay on interscapular incision [2] (7 days after surgery) was determined as 35%. Further, the “microscopic appearance of incision tract” value with interscapular incision [2] (7 days after surgery) was “very narrow with closely opposed edges”. Moreover, in the assay with interscapular incision [2] (fourteen days after surgery), the “tensile strength vs saline-treated incisions” value is recorded as “not different”. The “Angiogenic Response” value in assay [3] (0.04 mg/pellet (so in the source), EVA pellet) is listed as 1+; in assay [3] (0.18 mg/pellet (so in the source), EVA pellet) it was 1+; in assay [3] (1.1 mg/pellet (so in the source), EVA pellet), 2+; in assay [3] (6.2 mg/pellet (so in the source), EVA pellet) it was 3+; in assay [3] (25 mg/pellet (so in the source), EVA pellet in rabbit corneal pocket) it was 4+. For the same substance, the “angiogenesis in rabbit cornea assay” value in assay [3] (sustained release from EVA pellets) is “induced angiogenesis”.

The record behind these values is US4959353A, “Promotion of corneal stroma wound healing with human epidermal growth factor prepared from recombinant DNA” (University of Louisville Foundation, priority 1987, dated 1990).
